Data from US8637237B2, “Methods, compositions, and systems for the identification of species-specific or developmental stage-specific insecticides” (The University of North Carolina at Greensboro, priority 2003, dated 2014).
“And” between values parts separate entries of the source, which are not always exact repeats. Equal values may be shown once.

Biological target: T1, FXR (Rattus norvegicus, UniProt Q62735)
T1 sequence (Q62735 1-469): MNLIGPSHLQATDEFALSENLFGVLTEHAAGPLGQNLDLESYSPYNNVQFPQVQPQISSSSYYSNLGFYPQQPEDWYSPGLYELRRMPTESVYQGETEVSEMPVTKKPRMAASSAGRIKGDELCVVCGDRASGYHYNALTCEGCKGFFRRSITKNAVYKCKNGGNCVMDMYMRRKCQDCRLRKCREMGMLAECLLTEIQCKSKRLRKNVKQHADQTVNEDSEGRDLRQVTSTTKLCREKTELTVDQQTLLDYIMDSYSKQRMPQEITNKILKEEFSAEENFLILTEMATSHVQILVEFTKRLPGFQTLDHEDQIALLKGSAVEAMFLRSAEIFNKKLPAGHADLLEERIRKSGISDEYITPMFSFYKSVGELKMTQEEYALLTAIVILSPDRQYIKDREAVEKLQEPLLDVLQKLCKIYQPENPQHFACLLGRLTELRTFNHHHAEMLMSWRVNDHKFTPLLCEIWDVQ
T1 sequence (P28700 1-467 partner): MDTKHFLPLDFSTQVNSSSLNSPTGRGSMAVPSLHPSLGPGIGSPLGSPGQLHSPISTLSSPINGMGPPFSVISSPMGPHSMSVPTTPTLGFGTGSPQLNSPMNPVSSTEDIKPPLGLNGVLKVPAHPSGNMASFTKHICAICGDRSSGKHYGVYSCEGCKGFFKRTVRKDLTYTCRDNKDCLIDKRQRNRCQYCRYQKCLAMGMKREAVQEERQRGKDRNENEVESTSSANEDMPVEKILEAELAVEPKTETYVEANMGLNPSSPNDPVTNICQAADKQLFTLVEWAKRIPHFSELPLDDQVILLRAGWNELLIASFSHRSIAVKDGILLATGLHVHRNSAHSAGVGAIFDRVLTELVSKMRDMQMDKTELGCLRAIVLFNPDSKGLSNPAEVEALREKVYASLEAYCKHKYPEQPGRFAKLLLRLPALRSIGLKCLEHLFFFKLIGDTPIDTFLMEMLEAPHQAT
Assay: cell-based
Conditions: for FXR-dependent CAT activity, induction: 50 μM
Method in brief: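 CHO cells co-transfected with FXR, mouse RXRα and a (EcRE)5-ΔMTV-CAT reporter, with β-galactosidase for normalization. An RXR-dependent CRBPII-CAT reporter was run in parallel. Cells were exposed to candidate juvenoids for 24 h; CAT activity normalized to β-gal and expressed as fold induction over vehicle controls.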

[1] = final dose of 50 ∝M, 1 = induction less than 2-fold below cytotoxic doses

| Compound | FXR-dependent activity, induction (dose not stated) | FXR ACTIVITY (fold-induction) [1] [fold-induction] | FXR-dependent CAT activity, induction | other results |
| --- | --- | --- | --- | --- |
| CC(C)(O)CC[C@@H](O)[C@](C)(O)[C@H]1CC[C@@]2(O)C3=CC(=O)[C@@H]4C[C@@H](O)[C@@H](O)C[C@]4(C)[C@H]3CC[C@]12C [20E, 20-hydroxyecdysone] | unresponsive | – | – | – |
| COC(=O)/C=C(\C)CC/C=C(\C)CC[C@H]1OC1(C)C [JHIII, juvenile hormone III] | – | 20 | – | dose that elicits FXR-dependent activity in the CHO assay: 2 µM; FXR-dependent CAT activity, induction (listed as JH III): 15 fold; FXR-dependent CAT activity, induction (listed as juvenile hormone III): 20 fold |
| CC(C)=CCCC(C)=CCCC(C)=CC(=O)O [farnesoic acid] | – | 3 | 2 fold and 3 fold | – |
| COC(=O)/C=C(\C)CC/C=C(\C)CCC=C(C)C [methyl farnesoate] | – | – | 6 fold | – |
| CC(C)CC[C@@H](O)[C@](C)(O)[C@H]1CC[C@@]2(O)C3=CC(=O)[C@]4(O)C[C@@H](O)[C@@H](O)C[C@]4(C)[C@H]3[C@H](O)C[C@]12C [murA, muristerone A] | unresponsive | – | – | – |
| juvocimene | – | – | – | FXR-dependent activity, induction (25 μM): 5 fold; FXR ACTIVITY (fold-induction) (dose 25 μM): 9 fold-induction; RXR mediated transcription, increase (plant-derived JH agonists examined as FXR effectors): 10 fold |
